Measurements from ChEMBL document CHEMBL1671662, “In vitro activities of telavancin and six comparator agents against anaerobic bacterial isolates” (2009).
≈ marks a conversion by molar mass, not a printed value.

Assays:
Type in all cases: functional
[1] = tested on: Prevotella nigrescens; test: Antibacterial activity against Prevotella nigrescens by CLSI M11-A6 agar dilution method
[2] = tested on: Bifidobacterium longum; test: Antibacterial activity against Bifidobacterium longum by CLSI M11-A6 agar dilution method
[3] = tested on: Fusobacterium mortiferum; test: Antibacterial activity against Fusobacterium mortiferum by CLSI M11-A6 agar dilution method
[4] = tested on: Clostridium sporogenes; test: Antibacterial activity against Clostridium sporogenes by CLSI M11-A6 agar dilution method
[5] = tested on: Bacteroides thetaiotaomicron; test: Antibacterial activity against Bacteroides thetaiotaomicron by CLSI M11-A6 agar dilution method
[6] = tested on: Finegoldia magna; test: Antibacterial activity against Finegoldia magna by CLSI M11-A6 agar dilution method
[7] = tested on: Flavonifractor plautii; test: Antibacterial activity against Clostridium orbiscindens by CLSI M11-A6 agar dilution method
[8] = tested on: Prevotella bivia; test: Antibacterial activity against Prevotella bivia by CLSI M11-A6 agar dilution method
[9] = tested on: Collinsella aerofaciens; test: Antibacterial activity against Colinsella aerofaciens by CLSI M11-A6 agar dilution method
[10] = tested on: Bifidobacterium adolescentis; test: Antibacterial activity against Bifidobacterium adolescentis by CLSI M11-A6 agar dilution method
[11] = tested on: Streptococcus intermedius; test: Antibacterial activity against Streptococcus intermedius by CLSI M11-A6 agar dilution method
[12] = tested on: Propionibacterium propionicum; test: Antibacterial activity against Propionibacterium propionicus by CLSI M11-A6 agar dilution method; details: Arachnia propionica
[13] = tested on: Clostridium beijerinckii; test: Antibacterial activity against Clostridium beijerinckii by CLSI M11-A6 agar dilution method
[14] = tested on: Enterocloster clostridioformis; test: Antibacterial activity against Clostridium clostridioforme by CLSI M11-A6 agar dilution method
[15] = tested on: Clostridium tertium; test: Antibacterial activity against Clostridium tertium by CLSI M11-A6 agar dilution method
[16] = tested on: Ruminococcus lactaris; test: Antibacterial activity against Ruminococcus lactaris by CLSI M11-A6 agar dilution method
[17] = tested on: Parabacteroides merdae; test: Antibacterial activity against Parabacteroides merdae by CLSI M11-A6 agar dilution method
[18] = tested on: Clostridium scindens; test: Antibacterial activity against Clostridium scindens by CLSI M11-A6 agar dilution method
[19] = tested on: Ruminococcus torques; test: Antibacterial activity against Ruminococcus torques by CLSI M11-A6 agar dilution method; details: Mediterraneibacter torques
[20] = tested on: Odoribacter splanchnicus; test: Antibacterial activity against Bacteroides splanchnicus by CLSI M11-A6 agar dilution method
[21] = tested on: Prevotella disiens; test: Antibacterial activity against Prevotella P disiens by CLSI M11-A6 agar dilution method
[22] = tested on: Phocaeicola vulgatus; test: Antibacterial activity against Bacteroides vulgatus by CLSI M11-A6 agar dilution method
[23] = tested on: Sutterella wadsworthensis; test: Antibacterial activity against Sutterella wadsworthensis by CLSI M11-A6 agar dilution method
[24] = tested on: Clostridium subterminale; test: Antibacterial activity against Clostridium subterminale by CLSI M11-A6 agar dilution method
[25] = tested on: Ruminococcus sp.; test: Antibacterial activity against Ruminococcus sp. by CLSI M11-A6 agar dilution method
[26] = tested on: Ruminococcus gnavus; test: Antibacterial activity against Ruminococcus gnavus by CLSI M11-A6 agar dilution method; details: Mediterraneibacter gnavus
[27] = tested on: Hoylesella oralis; test: Antibacterial activity against Prevotella oralis by CLSI M11-A6 agar dilution method
[28] = tested on: Clostridium perfringens; test: Antibacterial activity against Clostridium perfringens by CLSI M11-A6 agar dilution method
[29] = tested on: Bifidobacterium pseudolongum; test: Antibacterial activity against Bifidobacterium pseudolongum by CLSI M11-A6 agar dilution method
[30] = tested on: Peptoniphilus asaccharolyticus; test: Antibacterial activity against Peptoniphilus asaccharolyticus by CLSI M11-A6 agar dilution method
[31] = tested on: Actinomyces naeslundii; test: Antibacterial activity against Actinomyces naeslundii by CLSI M11-A6 agar dilution method
[32] = tested on: Streptococcus constellatus; test: Antibacterial activity against Streptococcus constellatus by CLSI M11-A6 agar dilution method
[33] = tested on: Bilophila wadsworthia; test: Antibacterial activity against Bilophila wadsworthia by CLSI M11-A6 agar dilution method
[34] = tested on: Streptococcus anginosus; test: Antibacterial activity against Streptococcus anginosus by CLSI M11-A6 agar dilution method
[35] = tested on: Thomasclavelia ramosa; test: Antibacterial activity against Clostridium ramosum by CLSI M11-A6 agar dilution method
[36] = tested on: Prevotella denticola; test: Antibacterial activity against Prevotella P denticola by CLSI M11-A6 agar dilution method
[37] = tested on: Clostridium bartlettii; test: Antibacterial activity against Clostridium bartlettii by CLSI M11-A6 agar dilution method; details: Intestinibacter bartlettii
[38] = tested on: Parabacteroides distasonis; test: Antibacterial activity against Parabacteroides distasonis by CLSI M11-A6 agar dilution method
[39] = tested on: Clostridium paraputrificum; test: Antibacterial activity against Clostridium paraputrificum by CLSI M11-A6 agar dilution method
[40] = tested on: Clostridium hathewayi; test: Antibacterial activity against Clostridium hathewayi by CLSI M11-A6 agar dilution method; details: Hungatella hathewayi
[41] = tested on: Parvimonas micra; test: Antibacterial activity against Peptostreptococcus micros by CLSI M11-A6 agar dilution method
[42] = tested on: Fusobacterium varium; test: Antibacterial activity against Fusobacterium varium by CLSI M11-A6 agar dilution method
[43] = tested on: Ruminococcus albus; test: Antibacterial activity against Ruminococcus albus by CLSI M11-A6 agar dilution method; details: Hominimerdicola alba

CCCCCCCCCCNCCN[C@@]1(C)C[C@H](O[C@H]2[C@H](Oc3c4cc5cc3Oc3ccc(cc3Cl)[C@@H](O)[C@@H](NC(=O)[C@@H](CC(C)C)NC)C(=O)N[C@@H](CC(N)=O)C(=O)N[C@H]5C(=O)N[C@H]3C(=O)N[C@H](C(=O)N[C@H](C(=O)O)c5cc(O)c(CNCP(=O)(O)O)c(O)c5-c5cc3ccc5O)[C@H](O)c3ccc(c(Cl)c3)O4)O[C@H](CO)[C@@H](O)[C@@H]2O)O[C@@H](C)[C@H]1O [TELAVANCIN]
MIC50 [1]: 8 µg/mL (≈ 4.56 µM)
MIC90 [1]: 64 µg/mL (≈ 36.5 µM)
MIC50 [2]: ≤ 0.12 µg/mL
MIC90 [2]: 0.5 µg/mL (≈ 0.285 µM)
MIC50 [3]: > 64 µg/mL
MIC90 [3]: > 64 µg/mL
MIC50 [4]: ≤ 0.12 µg/mL
MIC90 [4]: 0.25 µg/mL (≈ 0.142 µM)
MIC50 [5]: > 64 µg/mL
MIC90 [5]: > 64 µg/mL
MIC50 [6]: ≤ 0.12 µg/mL
MIC90 [6]: 0.25 µg/mL (≈ 0.142 µM)
MIC50 [7]: ≤ 0.12 µg/mL
MIC90 [7]: 0.25 µg/mL (≈ 0.142 µM)
MIC50 [8]: 8 µg/mL (≈ 4.56 µM)
MIC90 [8]: 64 µg/mL (≈ 36.5 µM)
MIC50 [9]: ≤ 0.12 µg/mL
MIC90 [9]: 0.5 µg/mL (≈ 0.285 µM)
MIC50 [10]: ≤ 0.12 µg/mL
MIC90 [10]: 0.5 µg/mL (≈ 0.285 µM)
MIC50 [11]: ≤ 0.12 µg/mL
MIC90 [11]: ≤ 0.12 µg/mL
MIC50 [12]: ≤ 0.12 µg/mL
MIC90 [12]: 0.5 µg/mL (≈ 0.285 µM)
MIC50 [13]: ≤ 0.12 µg/mL
MIC90 [13]: 0.25 µg/mL (≈ 0.142 µM)
MIC50 [14]: 4 µg/mL (≈ 2.28 µM)
MIC90 [14]: 8 µg/mL (≈ 4.56 µM)
MIC50 [15]: ≤ 0.12 µg/mL
MIC90 [15]: 0.25 µg/mL (≈ 0.142 µM)
MIC50 [16]: ≤ 0.12 µg/mL
MIC90 [16]: ≤ 0.12 µg/mL
MIC [17]: > 64 µg/mL
MIC50 [17]: > 64 µg/mL
MIC90 [17]: > 64 µg/mL
MIC50 [18]: ≤ 0.12 µg/mL
MIC90 [18]: 0.25 µg/mL (≈ 0.142 µM)
MIC50 [19]: ≤ 0.12 µg/mL
MIC90 [19]: ≤ 0.12 µg/mL
MIC50 [20]: > 64 µg/mL
MIC90 [20]: > 64 µg/mL
MIC50 [21]: 8 µg/mL (≈ 4.56 µM)
MIC90 [21]: 64 µg/mL (≈ 36.5 µM)
MIC [22]: > 64 µg/mL
MIC50 [22]: > 64 µg/mL
MIC90 [22]: > 64 µg/mL
MIC [23]: > 64 µg/mL
MIC50 [23]: > 64 µg/mL
MIC90 [23]: > 64 µg/mL
MIC [24]: ≤ 0.12 µg/mL
MIC50 [24]: ≤ 0.12 µg/mL
MIC90 [24]: ≤ 0.12 µg/mL
MIC50 [25]: ≤ 0.12 µg/mL
MIC90 [25]: 0.25 µg/mL (≈ 0.142 µM)
MIC [26]: ≤ 0.12 µg/mL
MIC50 [26]: ≤ 0.12 µg/mL
MIC90 [26]: ≤ 0.12 µg/mL
MIC50 [27]: 8 µg/mL (≈ 4.56 µM)
MIC90 [27]: 64 µg/mL (≈ 36.5 µM)
MIC50 [28]: ≤ 0.12 µg/mL
MIC90 [28]: 0.25 µg/mL (≈ 0.142 µM)
MIC50 [29]: ≤ 0.12 µg/mL
MIC90 [29]: 0.5 µg/mL (≈ 0.285 µM)
MIC50 [30]: ≤ 0.12 µg/mL
MIC90 [30]: 0.25 µg/mL (≈ 0.142 µM)
MIC50 [31]: ≤ 0.12 µg/mL
MIC90 [31]: 0.5 µg/mL (≈ 0.285 µM)
MIC50 [32]: ≤ 0.12 µg/mL
MIC90 [32]: ≤ 0.12 µg/mL
MIC [33]: > 64 µg/mL
MIC50 [33]: > 64 µg/mL
MIC90 [33]: > 64 µg/mL
MIC50 [34]: ≤ 0.12 µg/mL
MIC90 [34]: ≤ 0.12 µg/mL
MIC [35]: 0.25 µg/mL (≈ 0.142 µM)
MIC50 [35]: 0.25 µg/mL (≈ 0.142 µM)
MIC90 [35]: 0.25 µg/mL (≈ 0.142 µM)
MIC50 [36]: 8 µg/mL (≈ 4.56 µM)
MIC90 [36]: 64 µg/mL (≈ 36.5 µM)
MIC50 [37]: ≤ 0.12 µg/mL
MIC90 [37]: 0.25 µg/mL (≈ 0.142 µM)
MIC [38]: > 64 µg/mL
MIC50 [38]: > 64 µg/mL
MIC90 [38]: > 64 µg/mL
MIC50 [39]: ≤ 0.12 µg/mL
MIC90 [39]: 0.25 µg/mL (≈ 0.142 µM)
MIC50 [40]: 0.5 µg/mL (≈ 0.285 µM)
MIC90 [40]: 1 µg/mL (≈ 0.57 µM)
MIC50 [41]: ≤ 0.12 µg/mL
MIC90 [41]: 0.25 µg/mL (≈ 0.142 µM)
MIC50 [42]: > 64 µg/mL
MIC90 [42]: > 64 µg/mL
MIC50 [43]: ≤ 0.12 µg/mL
MIC90 [43]: ≤ 0.12 µg/mL
